These results are taken from patent US12186392B2, “Combination therapy of an anti CD20 antibody with a BTK inhibitor” (Ono Pharmaceutical Co., Ltd., priority 2013, dated 2025).

Bounds are passed on as bounds.

The test system of one data set is TMD8 (ABC-DLBCL) cells. As to the kind of experiment: Antitumor activity study of compound A or compound B (in diet) in combination with RTX in TMD8 xenograft model (Example 3). As to conditions: for Tumor growth inhibition (TGI): vs vehicle group, RTX 3 mg/kg i.v. Q7Dx3, compound A 0.0037% in diet (6 mg/kg/day), compound B 0.012% in diet (20 mg/kg/day). The class given is in vivo, SCID mice. The procedure: Mice were xenografted on DO. […] Mice received one IV injection of Rituximab (at 3 mg/kg) once a week (D14 (Day 0), 21 (Day 7) and 28 (Day 14): Q7D×3). Tumor volumes were monitored and recorded at Day 3, Day 7, Day 11, Day 14, Day 18 and Day 21.
Female C.B-17/lcr-SCID/SCIDJcl mice (Clea Japan Inc., age at initiation of experiment: 6 weeks; hereinafter referred to as “Scid mice”) were used. The mice were kept in metal mouse cages, 3 to 5 to a cage, and underwent about 1 week acclimation period prior to being subjected to the experiment. While at our facility, the animals were allowed solid feed, CRF-1 (Oriental Yeast Co., Ltd.) and tap water (from an automatic dispenser) ad libitum. Excrement was processed with an automated cleaning system. The general condition of the animals was observed upon receipt and at the completion of acclimation. Animals having no problems with general condition were used in the experiment.
TMD8 was established from cells of a patient with diffuse large B-cell lymphoma (Tohda S et al., Leuk Res., 2006, 30: 1385-90). RPMI Medium 1640 (Invitrogen Corporation, hereinafter referred to as “RPMI”) containing 10 vol % inactivated FBS and 1 vol % Penicillin-Streptomycin liquid (Invitrogen Corporation) was prepared and used as medium. The medium was stored at 5° C. (allowable range: 1° C. to 9° C.). The cell suspension of 4×106 to 2.0×10^7 cells per dish was inoculated in a 150 mm dish containing the medium. The plates were incubated at 37° C., 5% CO2, 95% air.
At Day 0, the pellet was suspended in RPMI previously cooled on ice to obtain a 2×10^8 cells/mL cell suspension. The RPMI cell suspension and equal volume of BD Matrigel GFR (BD Biosciences) were combined to prepare a 1×10^8 cells/mL cell suspension. This was used as the cell suspension for implantation. Then, 0.1 mL of cell suspension was subcutaneously injected in the right flank of the mice under pentobarbital anesthesia, using a 25-gauge needle (Terumo Corporation).
The long axis and short axis of the tumors were measured with electronic calipers (Mitutoyo Corporation) every 2 or 4 days from TMD8 implantation to the final assessment day.
The primary endpoint was tumor volume on the final assessment day. In addition, the tumor growth inhibition rate (TGI, %) in the treatment groups versus the vehicle group was calculated. Temporal change in tumor volume and body weight from Day 0 were used as secondary endpoints. Tumor volume was calculated with the following formula. Tumor volume=Long axis of tumor×(short axis of tumor)2×0.5
The experiment in Example 3 was performed according to the method described in Example 1 except for the following “substance vehicle”, “route of drug administration” and “treatment schedule”
The comparative substance, ibrutinib (hereinafter referred to as “compound B”), was stored in sealed containers at ambient temperature, protected from light.
The dose of compound A or compound B corresponds to a daily intake of 6 or 20 mg/kg of body weight.
Treatment groups: Mice fed the same diet containing compound A or compound B after randomization. Rituximab was administered intravenously at a 3 mg/kg once weekly.
Tumor diameter was measured and tumor volume was calculated every 3 or 4 days after group assignment.

Data set [1] relates to NK cell-mediated cytotoxicity. To be noted: Kohrt H E et al., Blood 123, 1957-1960, 2014; cited from earlier work.

Turning to `C=CC(=O)N1CCC[C@@H](n2nc(-c3ccc(Oc4ccccc4)cc3)c3c(N)ncnc32)C1` [compound B, ibrutinib], the “Tumor growth inhibition (TGI)” value is reported as 0.4% in the data set on TMD8 (ABC-DLBCL) cells (day 0); 3.2% in the data set with TMD8 (ABC-DLBCL) cells (day 3); 19.1% in the data set on TMD8 (ABC-DLBCL) cells (day 7); 34.91% in the data set on TMD8 (ABC-DLBCL) cells (day 11); 40.2% with TMD8 (ABC-DLBCL) cells (day 14); 39.2% in the data set on TMD8 (ABC-DLBCL) cells (day 18). The “Tumor growth inhibition (TGI)” value in the data set with TMD8 (ABC-DLBCL) cells (day 21) was determined as 47.1%. Moreover, the “Statistical significance observed after Day” value with TMD8 (ABC-DLBCL) cells (monotherapy, RTX 3 mg/kg i.v., compound A 0.0037%, compound B 0.012% in diet) is over 11 days. In addition, the “Effect on RTX-dependent NK cell-mediated cytotoxicity” value in data set [1] is given as “antagonizes RTX-dependent NK cell-mediated cytotoxicity”.
